# Key:
# [1] = system: A549 (a lung cancer cell line); assay: Chemotherapy-induced cell death, PARP and Caspase-3 cleavage in A549; type: cell-based, human; details: A549 exposed to Exo/αPD1; CIS 5 μM, ABT263 15 μM
# Description: Colorimetric Cell Cytotoxicity Assay Kit (Abcam, France) was used to estimate the cell viability. Briefly, cells were seeded in 96-well plate. After the realization of manufacturer's instruction, absorbance was read at 570 and 605 nm using Victor™x3 spectrophotometer (Perkin-Elmer, France).
# Levels of cleaved caspase-3 and cleaved PARP are considered as both biomarkers of apoptosis. The measurement of these two parameters was performed using the Human Cleaved PARP1 and Human Cleaved Caspase-3 ELISA Kits (Abcam, France) according to the manufacturer's protocol.
# In view of the data described above, associating the ineffectiveness of cisplatin+αPD1 therapy with exomiR-4315-induced Bim down-expression, we then studied the effect of a “Bim/BH3 mimetic drug” such as ABT263 on the resistance to cisplatin of A549 cells exposed to Exo/αPD1. A549 lung cancer cells were then exposed to Exo/αPD1 and Exo prior to the addition of cisplatin (CIS, 5 μM) and/or ABT263 (15 μM). ABT263 abrogated the Exo/αPD1-induced resistance to CIS (FIG. 4A).
# A549-induced tumors = assay: A549-inoculated xenograft mice, tumor volume; type: in vivo
# Description: The experimental procedures using animals were in accordance with Institutional Animal Care guidelines and the French National Committee of Ethics. In addition, all experiments were conducted according to the Regulations for Animal Experimentation at the “Plate-forme […] the “Institut de Recherche en Santé de l'Université de Nantes (IRS-15N)” and approved by the French National Committee of Ethics. Cultured A549 cells were harvested by trypsinization, washed and resuspended in saline buffer. Cell suspensions were injected subcutaneously (s.c.) into the flanks of 7-/8-week-old mice (Janvier, France). Tumor volume based on caliper measurements was calculated using the modified ellipsoidal formula (Tumor volume=1⁄2(length×width2)).
# Bim = Bim expression (in-cell ELISA, RT-qPCR) in A172 cells; type: cell-based, human
# Description: In cell ELISA were performed using the Bim Colorimetric Cell-Based ELISA kit (Aviva Systems Biology, France) according to the manufacturer's instructions. Briefly, 5 000 cells were seeded in 96-well plate to be exposed or not to indicated exosome or miRNA. After that, cells were treated with a fixing solution (4% of paraformaldehyde solution) for 10 min at room temperature. Primary antibody was incubated overnight at 4° C. Adequate HRP-conjugated secondary antibodies were incubated for 1 hour at room temperature. Detection was performed at 450 nm.
# After washes, cells in each well were incubated with crystal violet solution for 5 min at room temperature, according to the manufacturer's instructions. Absorbance was read at 595 nm, and used to normalize the “Bim signal”.
# RNA extract is performed using RNeasy Mini QIAcube Kit and QIAcube (Qiagen, France). RT-qPCRs are performed using QuantiTect Reverse Transcription Kit, Rotor-Gene SYBR Green PCR Kit, QuantiTect Primer Assays and Rotor-Gene Q as real-time thermocycler (Qiagen, France). Reference gene RPLPO was used, with the 2-ΔΔCt relative quantification method.
# 3′UTR/Bim plasmid = assay: Luciferase 3'UTR reporter assay; type: cell-based, human; details: A172
# Description: Cells were seeded in 24-well plates and were transfected with the indicated firefly luciferase constructs together with an SV40-renilla control vector. Lysates were prepared at […], and luciferase activity was measured using the Dual Luciferase Reporter Assay system (Promega, France) and a luminometer (MicroLumat Plus, EG&G Berthold, France).
compound,measurement,setting,value
"CC1(C)CCC(c2ccc(Cl)cc2)=C(CN2CCN(c3ccc(C(=O)NS(=O)(=O)c4ccc(N[C@H](CCN5CCOCC5)CSc5ccccc5)c(S(=O)(=O)C(F)(F)F)c4)cc3)CC2)C1 [ABT263, navitoclax]",Exo/αPD1-induced resistance to CIS,[1],abrogated
same,deleterious effect of Exo/αPD1 on the CIS-resistance of cancer cells,A549-induced tumors; A549 xenograft mice,suppressed
"N.N.[Cl][Pt][Cl] [CIS, cisplatin]",volume of A549-induced tumors,A549-induced tumors; xenograft mice,decreased
"5′CCGCUUUCUGAGCUGGAC (miScript mimic, further chemistry not given here) [mimic miR-4315, Syn-hsa-miR-4315 miScript miRNA Mimic]",Bim expression (protein and mRNA levels),Bim,down-regulated
same,luciferase activity associated with the 3′UTR/Bim plasmid,3′UTR/Bim plasmid,decreased
